Experimental findings from patent EP0334119A1, “Compounds for inhibiting the biosynthesis of lipoxygenase-derived metabolites of arachidonic acid” (BOEHRINGER INGELHEIM PHARMACEUTICALS INC., priority 1988, dated 1989) are described below.

Experiment [1] concerns the target T1, 5-lipoxygenase (Homo sapiens, UniProt P09917).
T1 construct: Human PMN's (5 x 10⁶ cells/0.5 mL) in pH 7.2 phosphate buffer; endogenous in cells; host or cells: human polymorphonuclear leukocytes (PMN)
T1 sequence (P09917 1-674): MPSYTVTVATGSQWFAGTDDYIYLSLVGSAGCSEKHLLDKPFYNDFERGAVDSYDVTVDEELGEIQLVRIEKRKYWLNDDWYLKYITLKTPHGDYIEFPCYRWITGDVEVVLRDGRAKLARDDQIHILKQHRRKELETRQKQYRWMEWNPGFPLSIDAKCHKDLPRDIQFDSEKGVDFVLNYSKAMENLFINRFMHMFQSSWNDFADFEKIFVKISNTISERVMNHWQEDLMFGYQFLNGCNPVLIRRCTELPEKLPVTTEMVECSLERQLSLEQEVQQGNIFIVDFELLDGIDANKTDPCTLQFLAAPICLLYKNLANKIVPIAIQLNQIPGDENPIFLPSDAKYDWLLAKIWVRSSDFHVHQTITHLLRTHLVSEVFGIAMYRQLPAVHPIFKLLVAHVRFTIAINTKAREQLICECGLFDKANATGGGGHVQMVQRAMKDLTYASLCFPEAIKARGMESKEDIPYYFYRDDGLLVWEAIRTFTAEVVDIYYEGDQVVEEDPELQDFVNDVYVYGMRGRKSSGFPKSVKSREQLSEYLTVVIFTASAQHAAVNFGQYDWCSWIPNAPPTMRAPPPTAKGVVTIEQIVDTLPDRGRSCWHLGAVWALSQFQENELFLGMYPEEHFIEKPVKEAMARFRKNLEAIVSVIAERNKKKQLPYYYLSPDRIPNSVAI
The experiment is described as follows: Inhibition of 5-lipoxygenase (5-HETE biosynthesis) in human polymorphonuclear leukocytes. The class given is cell-based. The conditions noted are these: human PMN's, 5-HETE band vs control; test concentration 1 microM; read-out: Inhibition of 5-LO % at 1 M. The protocol: Inhibition of 5-Lipoxygenase in Human Polymorphonuclear Leukocytes (PMN's)
The inhibition of 5-lipoxygenase is measured by determining whether and to what extent test compounds inhibit the amount of 5-HETE biosynthesized by human PMN's. 5-HETE biosynthesis serves as a marker for arachidonic acid metabolism by 5-lipoxygenase.
Human PMN's (5 x 10⁶ cells/0.5 mL) in pH 7.2 phosphate buffer containing Ca²⁺ (0.6 mM) and Mg²⁺ (1.0 mM) were incubated with test compound for 15 minutes at 37°C with shaking. Calcium ionophore A23187 (0.25 mM, 0.01 mL) and [¹⁴C] arachidonic acid (0.10 microCi in 0.025 mL 0.01N NaOH) were added, and the mixture incubated another 2.5 minutes. The reaction was terminated by the addition of 0.025 mL of 1.0 N HCl. The mixture was then extracted with ethyl acetate-methylene chloride (2:3) supplemented with 12 microgram/mL cold arachidonic acid to reduce degradation of the metabolites. After concentrating the organic phase, the number of microlitres containing 5 x 10⁴ cpm was determined and that volume applied to a silica gel plate. The plate was developed in methylene-chloride-methanol-acetic acid-water (90:8:1:0.8), air dried, and counted on a Berthold linear TLC analyzer. The integrated area of the 5-HETE band was determined and compared with the control (no drug).
In cases where the IC₅₀ was determined, the result is shown in microM.

The subject of experiment [2] is 5-lipoxygenase. The experiment is described as follows: Inhibition of antigen-induced, late phase inflammatory cell infiltration in guinea pigs. The class given is in vivo. The conditions noted are these: 60 minutes before antigen challenge, lung lavage four hours after challenge. An excerpt:
Inhibition of Antigen-Induced, Late Phase Inflammatory Cell Infiltration in Guinea Pigs
This model is used to measure the ability of a drug to inhibit 5-lipoxygenase in vivo. In addition to SRS-A, a chemotactic substance LTB₄ is also released by cells in the sensitized guinea pig lung upon stimulation by antigen. As a result there is a measurable influx of cells into the lung. Therefore, an inhibitor of 5-lipoxygenase could reduce the formation of LTB₄ and thereby reduce the cell influx into the lung.
Male outbred Hartley strain albino guinea pigs (250-300 grams) were sensitized to ovalbumin as in the procedure for inhibition of antigen-induced, SRS-A mediated bronchioconstriction in conscious guinea pigs.
Sensitized guinea pigs were fasted and pretreated with pyrilamine and indomethacin as in bronchioconstriction testing procedure. Test compounds, suspended in 1% acacia, were administered 60 minutes before antigen challenge. […] Whole lung lavage was performed with three 5 mL aliquots of normal saline buffered with sodium bicarbonate.
Total cell counts were performed on a Coulter Counter, and differential cell counts were performed. Compounds were evaluated for their ability to alter the antigen-induced total cell influx and, more specifically, neutrophil (PMN) influx.

The test system of experiment [3] is A23187-Induced LTB₄ Generation. In words: Ex vivo inhibition of A23187-induced LTB4 generation in squirrel monkey blood. Also noted: species or system Squirrel Monkeys. The conditions noted are these: Primates. The protocol:
Ex Vivo Inhibition of A23187-Induced LTB₄ Generation in Squirrel Monkeys.
Incubation of squirrel monkey whole blood with calcium ionophore A23187 stimulates the production of LTB₄. This LTB₄ production can be inhibited by a lipoxygenase inhibitor in vitro by incubating the blood with the inhibitor prior to A23187 challenge. By dosing squirrel monkeys with a lipoxygenase inhibitor prior to withdrawal of a blood sample, one can determine the ability of the lipoxygenase inhibitor to be absorbed into the bloodstream by measuring the inhibition of A23187 induced LTB₄ production ex vivo.
Squirrel monkeys (400-650g) were fasted for 18 hours, anesthetized and dosed either orally or intraperitoneally with test compound. After the desired time period, blood was withdrawn from the femoral vein. The blood (0.5 mL) was heparinized, preincubated at 37°C for 5 minutes and stimulated with A23187 in DMSO to give a final concentration of 30 microM. The reaction was terminated with EGTA (final concentration 10 microM), and the blood centrifuged. Levels of LTB₄ in the plasma were then determined by radioimmunoassay.
The results shown in Table 4 illustrate the ability of a prodrug of type 2a or 2b to be absorbed after ip or po dosing compared to the parent compound 1a.

Setting [4] is: 1 h, 30 mg/kg ip, 60 min after dosing, vehicle per footnotes 2-4, read-out: Percent Inh. Monkey 2.
Where [5] appears, read: 1 h, 30 mg/kg ip, 60 min after dosing, vehicle per footnotes 2-4, read-out: Percent Inh. Monkey 3.
[6] abbreviates: 1 h, 30 mg/kg ip, 60 min after dosing, vehicle per footnotes 2-4, read-out: Percent Inh. Monkey #1.
Setting [7] is: 1 h, 30 mg/kg po, 60 min after dosing, vehicle per footnotes 2-4, read-out: Percent Inh. Monkey 2.
Where [8] appears, read: 1 h, 30 mg/kg po, 60 min after dosing, vehicle per footnotes 2-4, read-out: Percent Inh. Monkey #1.

Structures can show the parent of a compound that is named as a salt. Where two headings read alike, the source gives them in different places.

On to `COc1ccc(C=Cc2cc(C(C)C)c(O)c(C(C)C)c2)cc1OC` [Compound 1aw], for which the inhibition at 1 µM on 5-lipoxygenase [1] turned out to be 57%. As for `CCc1cc(C=Cc2cccs2)cc(CC)c1O` [Compound 1i, 2,6-Diethyl-4-[2-(2-thienyl)ethenyl]phenol], the “% Inh. PMN” value in the experiment on 5-lipoxygenase [2] (30 mg/kg ip) turned out to be 74%; in the experiment on 5-lipoxygenase [2] (30 mg/kg po), 51%. The “% Inh. Total Cells” value came to 51% with 5-lipoxygenase [2] (30 mg/kg ip) and 65% in the experiment with 5-lipoxygenase [2] (30 mg/kg po). In addition, on 5-lipoxygenase [1], the inhibition at 1 µM was found to be 70%. As for `Cc1cc(C=Cc2cccs2)cc(C)c1OC(=O)CCC(=O)O` [Compound 2a, 2,6-Dimethyl-4-[2-(2-thienyl)ethenyl]phenyl succinate], in the experiment on 5-lipoxygenase [2] (10 mg/kg po), the “% Inh. PMN” value is reported as 93%. Moreover, the “% Inh. Total Cells” value in the experiment with 5-lipoxygenase [2] (10 mg/kg po) is 89%. Also, the inhibition at 30 mg/kg in experiment [3] (setting [4]) came to 83%; in experiment [3] (setting [5]), 89%; in experiment [3] (setting [6]), 62%; in experiment [3] (setting [7]) it was 71%; in experiment [3] (1 h, 30 mg/kg po, 60 min after dosing, vehicle per footnotes 2-4, read-out: Percent Inh. Monkey 3), 66%; in experiment [3] (setting [8]), 50%. Besides, the inhibition at 30 mg/kg in experiment [3] (2 h, 30 mg/kg po, 120 min after dosing, dissolved in dilute alkali, read-out: Percent Inh. Monkey 2) amounted to 100%; in experiment [3] (2 h, 30 mg/kg po, 120 min after dosing, dissolved in dilute alkali, read-out: Percent Inh. Monkey 3) it was 61%; in experiment [3] (2 h, 30 mg/kg po, 120 min after dosing, dissolved in dilute alkali, read-out: Percent Inh. Monkey #1), 41%; in experiment [3] (4 h, 30 mg/kg po, 240 min after dosing, dissolved in dilute alkali, read-out: Percent Inh. Monkey 2), 65%; in experiment [3] (4 h, 30 mg/kg po, 240 min after dosing, dissolved in dilute alkali, read-out: Percent Inh. Monkey 3), 100%; in experiment [3] (4 h, 30 mg/kg po, 240 min after dosing, dissolved in dilute alkali, read-out: Percent Inh. Monkey #1) it was 43%.

On to `Cc1cc(C=Cc2ccncc2)cc(C)c1O` [Compound 1y], for which the inhibition at 1 µM at 5-lipoxygenase [1] worked out at 46%. The same measure, in the same setting: in the case of `Cc1cc(C=Cc2cccs2)cc(Cl)c1O` [Compound 1l] it was 84%; in that of `COc1ccc(C=Cc2cc(F)c(O)c(OC)c2)cc1` [Compound 1az], 63%; in that of `CC(C)c1cc(C=Cc2ccc(F)cc2)cc(C(C)C)c1O` [Compound 1ax], 32%.

Regarding `COc1cc(C=Cc2cccnc2)cc(C)c1O` [Compound 1z], at 5-lipoxygenase [1], the inhibition at 1 µM came out at 52%. In the case of `Cc1cc(C=Cc2ccc(Cl)s2)cc(C)c1O` [Compound 1b], the inhibition at 1 µM at 5-lipoxygenase [1] came to 77%. The same measure, in the same setting: in the case of `CCc1cc(C=Cc2ccsc2)cc(OC)c1O` [Compound 1r] it was 82%.

On to `COc1cc(C=Cc2ccsc2)cc(F)c1O` [Compound 1t], for which the inhibition at 1 µM on 5-lipoxygenase [1] is 59%. Same read-out and setting: in the case of `CCc1cc(C=Cc2cccnc2)cc(CC)c1O` [Compound 1aa] it was 59%. On the same count and under the same terms, in the case of `COc1cc(C=Cc2ccsc2)cc(C)c1O` [Compound 1p] it was 70%. As for `Cc1cc(C=Cc2ccsc2)cc(Cl)c1O` [Compound 1s], the inhibition at 1 µM on 5-lipoxygenase [1] is 75%. On the same count and under the same terms, in the case of `COc1ccc(C=Cc2cc(C(C)C)c(O)c(C(C)C)c2)cc1` [Compound 1av] it was 71%; in that of `COc1cc(C=Cc2ccc(Cl)s2)cc(C)c1O` [Compound 1g], 76%; in that of `Cc1ccc(C=Cc2cc(C)c(O)c(C)c2)s1` [Compound 1c], 62%.

Take `COc1cc(C=Cc2ccsc2)cc(OC)c1O` [Compound 1q]: the inhibition at 1 µM on 5-lipoxygenase [1] was found to be 77%. `Cc1cc(C=Cc2cccs2)cc(C)c1OC(=O)CN` [Compound 2b, 2,6-Dimethyl-4-[2-(2-thienyl)ethenyl]phenyl glycinate hydrochloride]: the inhibition at 30 mg/kg in experiment [3] (1 h, 24 mg/kg instead of 30 mg/kg po, 60 min after dosing, dissolved in distilled water, read-out: Percent Inh. Monkey 3) amounted to 33%; in experiment [3] (setting [4]) it was 56%; in experiment [3] (setting [5]), 69%; in experiment [3] (setting [6]) it was 78%; in experiment [3] (setting [7]), 54%; in experiment [3] (setting [8]), 62%. Regarding `CCc1cc(C=Cc2ccsc2)cc(CC)c1O` [Compound 1u], on 5-lipoxygenase [1], the inhibition at 1 µM is 66%. In the case of `CC(C)c1cc(C=Cc2cccs2)cc(C(C)C)c1O` [Compound 1j], the inhibition at 1 µM at 5-lipoxygenase [1] was determined as 78%. For `COc1cc(C=Cc2cccs2)cc(F)c1O` [Compound 1m], the inhibition at 1 µM at 5-lipoxygenase [1] amounted to 65%.

As for `COc1cc(C=Cc2cccs2)cc(OC)c1O` [Compound 1n], at 5-lipoxygenase [1], the inhibition at 1 µM stood at 78%. For the molecule `C=CCc1cc(C=Cc2cccnc2)cc(C)c1O` [Compound 1ac], on 5-lipoxygenase [1], the inhibition at 1 µM was found to be 61%. On the same count and under the same terms, in the case of `C=CCc1cc(C=Cc2ccsc2)cc(C)c1O` [Compound 1v] it was 75%; in that of `Cc1cc(C=Cc2cccs2)cc(F)c1O` [Compound 1k], 65%. Turning to `C=CCc1cc(C=Cc2cccs2)cc(C)c1O` [Compound 1h], in the experiment with 5-lipoxygenase [2] (10 mg/kg ip), the “% Inh. PMN” value is listed as 46% and the “% Inh. Total Cells” value was determined as 55%. In addition, the inhibition at 1 µM at 5-lipoxygenase [1] was found to be 70%. For the molecule `Cc1cc(C=Cc2ccccn2)cc(C)c1O` [Compound 1w], the inhibition at 1 µM on 5-lipoxygenase [1] amounted to 77%. On to `CC(C)c1cc(C=Cc2cccc(C(F)(F)F)c2)cc(C(C)C)c1O` [Compound 1ay], for which the inhibition at 1 µM at 5-lipoxygenase [1] turned out to be 34%.
